Biological target: Pycnoporus cinnabarinus ss3 cellobiose dehydrogenase, recombinant (rCDH, C-terminal (His)6 tag, expressed in Pichia pastoris; GenBank HQ825322) (Trametes cinnabarina, UniProt F1DFN2)
Assay: Kinetic parameters of purified rCDH for electron acceptors (cellobiose oxidation, 30° C., pH 4.5)
Type: biochemical
Experimental: To measure enzyme activities in the P. cinnabarinus culture supernatant, each aliquot was centrifuged for 5 min at 3500 rpm and filtered through a 0.45 μm membrane (MILLIPORE, Bedford, Mass., USA). CDH activities were determined by monitoring the reduction of 0.2 mM 2,6-dichlorophenol indophenol (DCPIP) in 100 mM sodium acetate buffer (pH 5) containing 2 mM cellobiose and 4 mM of sodium fluoride (sodium fluoride was used as a laccase inhibitor). The decrease in absorption at 520 nm (ε=6800 M^−1·cm^−1) was monitored at 30° C. for 1 min. Alternatively, CDH activity was determined by monitoring the reduction of 50 μM cytochrome c (cyt c) in 100 mM sodium-acetate buffer (pH 5) containing 2 mM cellobiose. The decrease in absorption at 550 nm (ε=33,700 M^−1·cm^−1) was monitored at 30° C. for 1 min. Glucose oxidase was measured by using the D-gluconic acid/D-glucono-δ-lactone assay (MEGAZYME). Laccase activity was determined quantitatively by monitoring the oxidation of 5 mM ABTS (2,2′-azino-bis(3-ethylbenzthiazoline-6-sulfonic acid)) at 420 nm (extinction coefficient […] cm.^−1) in the presence of 50 mM NaK tartrate, pH 4.0. Lignin peroxidase activity was determined spectrophotometrically at 30° C. by the method of Tien and Kirk (1988, Methods Enzymol., vol. 161, pp: 238-249). Manganese peroxidase activity was determined spectrophotometrically at 30° C. by the method of Paszczynski et al. (1985, FEMS Microbiol. Lett. 29:37-41) using H2O2 and vanillylacetone as substrate. Enzyme activity was expressed in international units (IU). One unit of activity is defined as the quantity of enzyme that transforms 1 μmol of substrate in one minute.
The kinetic parameters (Vmax and Km) were determined for cellobiose oxidation measured at 30° C. in 50 mM citrate phosphate buffer pH 4.5 using DCPIP or cytochrome c. The concentration of cellobiose ranged from 10 to 700 μM with both electron acceptors (DCPIP and cytochrome c). Triplicates were run to ensure reliable kinetic parameter determination.
Graphpad prism v.4 (Graphpad Software) was used for the nonlinear regression calculation and kinetic parameter determination.

[1] = electron acceptor DCPIP, cellobiose as electron donor, 30° C., pH 4.5, apparent

Pycnoporus cinnabarinus ss3 cellobiose dehydrogenase, recombinant (rCDH, C-terminal (His)6 tag, expressed in Pichia pastoris; GenBank HQ825322), sequence (F1DFN2 1-750): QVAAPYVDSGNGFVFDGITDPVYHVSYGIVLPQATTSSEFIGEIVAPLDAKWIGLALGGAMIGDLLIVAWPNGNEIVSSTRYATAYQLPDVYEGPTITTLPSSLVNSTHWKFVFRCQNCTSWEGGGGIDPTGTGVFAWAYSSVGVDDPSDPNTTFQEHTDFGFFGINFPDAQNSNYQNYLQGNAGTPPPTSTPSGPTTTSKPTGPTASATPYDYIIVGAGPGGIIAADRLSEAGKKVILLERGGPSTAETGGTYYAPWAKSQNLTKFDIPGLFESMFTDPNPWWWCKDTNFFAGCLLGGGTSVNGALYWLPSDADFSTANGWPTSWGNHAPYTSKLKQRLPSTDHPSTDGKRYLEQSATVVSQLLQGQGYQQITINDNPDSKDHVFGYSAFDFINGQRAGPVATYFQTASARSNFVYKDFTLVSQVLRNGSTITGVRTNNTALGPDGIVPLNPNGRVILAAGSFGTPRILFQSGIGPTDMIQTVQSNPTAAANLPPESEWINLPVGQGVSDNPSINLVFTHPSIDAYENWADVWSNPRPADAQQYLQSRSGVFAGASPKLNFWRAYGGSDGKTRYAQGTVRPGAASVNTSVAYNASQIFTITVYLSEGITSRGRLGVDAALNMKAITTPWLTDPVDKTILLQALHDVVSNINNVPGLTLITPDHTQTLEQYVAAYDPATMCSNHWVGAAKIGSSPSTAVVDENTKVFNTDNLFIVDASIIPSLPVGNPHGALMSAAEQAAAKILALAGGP

Question: What does the source list for `O=C1C(Cl)=CC(=Nc2ccc(O)cc2)C=C1Cl` [DCPIP, 2,6-dichlorophenol indophenol]?
Answer: Vmax (DCPIP, on cellobiose oxidation): 22.2 U·mg^−1; Vmax [1]: 22.2 µmol/min/mg; kcat [1]: 40.8 s⁻¹; kcat/KM [1]: 1.148e+06 M⁻¹ s⁻¹

Reference: US9688966B2, “Compositions comprising cellobiose dehydrogenase from Pycnoporus cinnabarinus and their use for the degradation of lignocellulosic biomass” (INSTITUT NATIONAL DE LA RECHERCHE AGRONOMIQUE, priority 2011, dated 2017)
